# Data taken from patent US6241963A, “Dopamine and serotonin transporter ligands and imaging agents” (priority 1996, dated 2001).
# Values joined by “and” are separate entries in the source; they are usually repeats but may differ in a detail not shown here. Equal values may be shown once. “Also recorded” adds a separate entry of the source. Read-outs that look alike come from different tables or passages of the source.
# What was measured:
# [1] = format: in vivo, Male Sprague-Dawley rats; details: rats, iv
# Procedure: Male Sprague-Dawley rats (225-300 g) allowed free access to food and water were used for in vivo biodistribution studies. Kung, 1984, supra; Kung, 1985, supra. While under ether anesthesia, 0.2 mL of a saline solution containing 1.19a, 1.19b, 1.20a, 1.20b or 1.21 (50-100 μCi) was injected directly into the femoral vein of rats, and the rats were sacrificed by cardiac excision at various time points post-injection. The organs of interest were removed and weighed, and the radioactivity was counted with an automatic gamma counter (Packard 5000). The percentage dose per organ was calculated by a comparison of the tissue counts to suitably diluted aliquots of the injected material. Total activities of blood and muscle were calculated under the assumption that they were 7% and 40% of the total body weight, respectively.
# (§1) The major criteria for determining the potential usefulness of in vivo dopamine transporter imaging agents are based on an animal biodistribution study. In this case, rats were used as an animal model. After an intravenous injection of the Tc-99m labeled compounds, the values of initial brain uptake (% dose/whole organ) at 2 minutes post intravenous injection are used to measure the ability to penetrate the intact blood-brain barrier. Compounds displaying higher brain uptake are the better agents (minimum requirement >0.1% dose in brain). The second criteria is the specific uptake in the striatum region of the brain, where dopamine transporters are located. The uptake value (% dose/gram) of the striatum (ST) is divided by the background area, cerebellum (CB; essentially devoid of dopamine transporter); the ratio of ST/CB is an indicator for specific uptake (minimum requirement for ST/CB >1.5). Five structurally similar tropane derivatives were examined in this biological study. (Tables 1.1 to 1.4).
# Male Sprague-Dawley rats (225-300 g) that were allowed free access to food and water were used for in vivo biodistribution studies. (Kung, 1984, supra; Kung, 1985, supra). While under halothane anesthesia, 0.2 mL of a saline solution containing 3.24 to 3.34 ([…]) was injected directly into the femoral vein of rats, and they were sacrificed by cardiac excision at various time points post-injection. The organs of interest were removed and weighed, and the radioactivity was counted with an automatic gamma counter (Packard 5000). The percentage dose per organ was calculated by a comparison of the tissue counts to suitably diluted aliquots of the injected material. Total activities of blood and muscle were calculated under the assumption that they were 7% and 40% of the total body weight, respectively.
# dopamine transporters [2] = molecular target: dopamine transporters (Rattus norvegicus, UniProt P23977); format: in vivo, Male Sprague-Dawley rats; details: rats, iv
# Sequence of dopamine transporters (Rattus norvegicus, UniProt P23977) (P23977 whole entry): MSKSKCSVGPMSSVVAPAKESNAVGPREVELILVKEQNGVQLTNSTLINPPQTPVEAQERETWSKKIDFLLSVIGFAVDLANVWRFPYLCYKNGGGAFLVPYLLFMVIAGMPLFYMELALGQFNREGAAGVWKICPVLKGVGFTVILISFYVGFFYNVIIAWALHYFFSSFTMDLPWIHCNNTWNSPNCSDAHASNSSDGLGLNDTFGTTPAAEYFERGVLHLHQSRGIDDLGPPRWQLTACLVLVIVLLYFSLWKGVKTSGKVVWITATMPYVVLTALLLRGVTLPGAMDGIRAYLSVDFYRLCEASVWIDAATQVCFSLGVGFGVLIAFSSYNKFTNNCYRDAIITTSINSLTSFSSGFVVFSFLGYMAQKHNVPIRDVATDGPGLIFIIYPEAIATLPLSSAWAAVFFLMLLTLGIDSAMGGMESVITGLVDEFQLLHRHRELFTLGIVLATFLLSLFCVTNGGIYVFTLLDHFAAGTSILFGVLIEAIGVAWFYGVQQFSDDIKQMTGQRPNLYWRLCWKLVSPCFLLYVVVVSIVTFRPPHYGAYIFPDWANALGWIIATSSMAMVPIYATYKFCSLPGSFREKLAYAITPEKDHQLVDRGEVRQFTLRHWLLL
# Procedure: For dopamine transporter imaging agents, the target area of the brain is the striatum, where dopamine transporters are highly concentrated. The cerebellum region is suitable for use as the background region, because it has no dopamine transporters. The specific uptake is measured by the ratio of % dose/gram of striatum divided by % dose/gram of cerebellum (ST/CB ratio)--the higher the value, the better the specific uptake, and the more promising as a dopamine transporter imaging agent.
# (§2) Regional brain distribution in rats was obtained after an injection of 1.19a, 1.19b, 1.20a, 1.20b or 1.21. Samples from different brain regions (cortex, striatum, hippocampus, and cerebellum) were dissected, weighed and counted, and the percentage dose per gram of sample was calculated by comparing the sample counts with the count of the diluted initial dose. The uptake ratio of each region was obtained by dividing the percentage dose per gram of that region by that of the cerebellum. For blocking studies, rats were injected with either β-CIT or haloperidol (iv, 1 mg/Kg) 5 min prior to injection of 1.19a. The rats were dissected and brain tissue samples were counted as described above. The specific uptake of the compound was expressed as ratio of ST/CB (% dose/g of striatum divided by the same of cerebellum).
# as §1
# as §2, with “3.24 to 3.34.” for “1.19a, 1.19b, 1.20a, 1.20b or 1.21.”, “3.25.” for “1.19a.”, “above.” for “above. The specific uptake of the compound was expressed as ratio of ST/CB (% dose/g of striatum divided by the same of cerebellum).”
# dopamine transporters [3] = details: cited from earlier work; for Literature binding / localization / biodistribution, in words: in vivo; for Time for reaching optimal uptake ratio / equilibrium: basal ganglia versus frontal cortex
# dopamine transporter = test: Blocking studies in rats (pretreatment or co-injection with competing agent); format: in vivo, Male Sprague-Dawley rats; details: 1 mg/kg iv, 5 min before tracer, rats
# Procedure: as §2
# as §2, with “3.24 to 3.34.” for “1.19a, 1.19b, 1.20a, 1.20b or 1.21.”, “3.25.” for “1.19a.”, “above.” for “above. The specific uptake of the compound was expressed as ratio of ST/CB (% dose/g of striatum divided by the same of cerebellum).”
# [4] = Partition coefficient between 1-octanol (n-octanol) and buffer; format: physicochemical; details: 1-octanol/pH 7.0 phosphate buffer
# Procedure: (§3) Partition coefficients were measured by mixing each Tc-99m compound with 3 g each of 1-octanol and buffer (pH 7.0 or 7.4, 0.1 M phosphate) in a test tube. The test tube was vortexed for 3 minutes at room temperature, then centrifuged for 5 minutes. Two weighed samples (0.5 g each) from the 1-octanol and buffer layers were counted in a well counter. The partition coefficient was determined by calculating the ratio of cpm/g of octanol to that of buffer. Samples from the octanol layer were repartitioned until consistent partition coefficient values were obtained. The measurement was repeated 3 times.
# as §3, with “The partition coefficient was measured” for “Partition coefficients were measured”, “mixing the” for “mixing each”, “3 min” for “3 minutes”
smiles,measurement,setting,value
"CN1[C@H]2CC[C@@H]1[C@@H](C[N+]13CC[S][99Tc-]14(=[O])[S]CC[N]4CC3)[C@@H](c1ccc(Cl)cc1)C2 (single isomer, unassigned; peak b) [peak B (1.19a)]","Blood uptake, 2 min",[1],4.02 ± 0.20 % dose/organ
same,"Brain uptake, 2 min",[1],0.28 ± 0.01 % dose/organ
same,"Heart uptake, 2 min",[1],1.28 ± 0.15 % dose/organ
same,"Kidney uptake, 2 min",[1],4.47 ± 0.69 % dose/organ
same,"Liver uptake, 2 min",[1],9.07 ± 1.66 % dose/organ
same,"Lung uptake, 2 min",[1],6.00 ± 1.11 % dose/organ
same,"Muscle uptake, 2 min",[1],41.46 ± 11.33 % dose/organ
same,"Skin uptake, 2 min",[1],3.43 ± 0.62 % dose/organ
same,"Spleen uptake, 2 min",[1],0.27 ± 0.03 % dose/organ
same,"Brain uptake, 2 min",[1]; listed as Peak B,0.28 % dose/organ
same,"Blood uptake, 60 min",[1],1.89 ± 0.21 % dose/organ
same,"Brain uptake, 60 min",[1],0.12 ± 0.02 % dose/organ
same,"Heart uptake, 60 min",[1],0.19 ± 0.06 % dose/organ
same,"Kidney uptake, 60 min",[1],1.87 ± 0.80 % dose/organ
same,"Liver uptake, 60 min",[1],18.71 ± 2.54 % dose/organ
same,"Lung uptake, 60 min",[1],1.23 ± 0.89 % dose/organ
same,"Muscle uptake, 60 min",[1],8.60 ± 2.51 % dose/organ
same,"Skin uptake, 60 min",[1],4.11 ± 0.62 % dose/organ
same,"Spleen uptake, 60 min",[1],0.41 ± 0.24 % dose/organ
same,"ST/CB ratio, 60 min",dopamine transporters [2],3.79
"COC(=O)[C@H]1[C@@H](c2ccc(F)cc2)C[C@@H]2CC[C@H]1N2C [CFT (WIN35,428)]","Literature binding / localization / biodistribution, in words",dopamine transporters [3],much higher binding affinity and selectivity to dopamine reuptake sites
COC(=O)[C@H]1[C@@H](c2ccc([123I])cc2)C[C@@H]2CC[C@H]1N2CCCF [[^123 I]-β-CIT-FP],Time for reaching optimal uptake ratio / equilibrium,dopamine transporters [3],less than one hour
COC(=O)C1C(c2ccc(F)cc2)CC2CCC1N2CCCN(CC[S-])CC([O-])=NCC[S-].[O]=[99Tc+3] (centres unmarked) [Technepine],"Literature binding / localization / biodistribution, in words",dopamine transporters [3],poor biodistribution
same,"Literature binding / localization / biodistribution, in words",dopamine transporters [3]; listed as technepine,less favorable biological properties
COC(=O)C1C(c2ccc(Cl)cc2)CC2CCC1N2CCC[N+]12CC[S][99Tc-]13(=[O])[S]CC[N]3CC2 (mixture of isomers) [Compound 2.6a],"Brain uptake, 2 min",[1],0.27 ± 0.02 % dose/organ
same,"Brain uptake, 30 min",[1],0.11 ± 0.02 % dose/organ
same,"Brain uptake and specific striatal uptake, in words",dopamine transporters [2],displayed a significant brain uptake and specific uptake to the striatum area of the rat brain
"COC(=O)[C@H]1[C@@H](c2ccc(I)cc2)C[C@@H]2CC[C@H]1N2C [β-CIT, N-methyl-2b-carbomethoxy-3b-(4-iodophenyl)tropane, reference compound]",Effect of pretreatment on specific striatal uptake of tracer,dopamine transporter,could be blocked; also recorded: showed blocking of the specific uptake
same,Effect of pretreatment on specific striatal uptake of tracer,dopamine transporter; listed as RTI-55,could be blocked
same,Time for reaching optimal uptake ratio / equilibrium,dopamine transporters [3],> 18 h
same,"Literature binding / localization / biodistribution, in words",dopamine transporters [3],much higher binding affinity and selectivity to dopamine reuptake sites
CN1[C@H]2CC[C@@H]1[C@@H](C[N+]13CC[S][99Tc-]14(=[O])[S]CC[N]4CC3)[C@@H](c1ccc(Br)cc1)C2 (some centres unmarked) [Compound 1.20c],"Brain uptake, 2 min",[1],0.41 ± 0.03 % dose/organ
same,"Brain uptake, 60 min",[1],0.18 ± 0.01 % dose/organ
same,"Brain uptake and specific striatal uptake, in words",dopamine transporters [2],high initial uptake and high specific retention in brain
same,"ST/CB ratio, 60 min",dopamine transporters [2],2.82 and 2.82 ± 0.19
"O=C(CCCN1CCC(O)(c2ccc(Cl)cc2)CC1)c1ccc(F)cc1 [haloperidol, reference compound]",Effect of pretreatment on specific striatal uptake of tracer,dopamine transporter,no blocking effect was observed
COC(=O)[C@H]1[C@@H](OC(=O)c2ccccc2)C[C@@H]2CC[C@H]1N2C [cocaine],"Literature binding / localization / biodistribution, in words",dopamine transporters [3],largely concentrated in the basal ganglia
CN1[C@H]2CC[C@@H]1[C@@H](C(=O)[N+]13CC[S][99Tc-]14(=[O])[S]CC[N]4CC3)[C@@H](c1ccc(Cl)cc1)C2 (some centres unmarked) [Compound 1.19b],"Partition coefficient (P.C.), 1-octanol/pH 7.0 buffer",[4],230
same,"Brain uptake, 2 min",[1],0.39 ± 0.12 % dose/organ
same,"Brain uptake, 30 min",[1],0.21 ± 0.03 % dose/organ
same,"Brain uptake, 60 min",[1],0.11 ± 0.02 % dose/organ
same,"ST/CB ratio, 30 min",dopamine transporters [2]; 30 min,2.78
same,"ST/CB ratio, 60 min",dopamine transporters [2],2.78 and 2.78 ± 0.32
"CN1[C@H]2CC[C@@H]1[C@@H](C[N+]13CC[S][99Tc-]14(=[O])[S]CC[N]4CC3)[C@@H](c1ccc(Cl)cc1)C2 (single isomer, unassigned; peak a) [Peak A (1.19a)]","Blood uptake, 2 min",[1],1.98 ± 0.19 % dose/organ
same,"Brain uptake, 2 min",[1],0.5 % dose/organ and 0.50 ± 0.06 % dose/organ
same,"Heart uptake, 2 min",[1],1.76 ± 0.09 % dose/organ
same,"Kidney uptake, 2 min",[1],5.47 ± 1.04 % dose/organ
same,"Liver uptake, 2 min",[1],9.55 ± 2.19 % dose/organ
same,"Lung uptake, 2 min",[1],9.68 ± 0.51 % dose/organ
same,"Muscle uptake, 2 min",[1],33.61 ± 4.31 % dose/organ
same,"Skin uptake, 2 min",[1],2.73 ± 0.39 % dose/organ
same,"Spleen uptake, 2 min",[1],0.27 ± 0.04 % dose/organ
same,"Blood uptake, 60 min",[1],1.00 ± 0.15 % dose/organ
same,"Brain uptake, 60 min",[1],0.21 ± 0.01 % dose/organ
same,"Heart uptake, 60 min",[1],0.21 ± 0.00 % dose/organ
same,"Kidney uptake, 60 min",[1],2.04 ± 0.21 % dose/organ
same,"Liver uptake, 60 min",[1],17.75 ± 1.81 % dose/organ
same,"Lung uptake, 60 min",[1],3.06 ± 0.28 % dose/organ
same,"Muscle uptake, 60 min",[1],14.98 ± 0.49 % dose/organ
same,"Skin uptake, 60 min",[1],3.56 ± 0.65 % dose/organ
same,"Spleen uptake, 60 min",[1],0.46 ± 0.18 % dose/organ
same,"ST/CB ratio, 60 min",dopamine transporters [2],2.72
